This is an account of results in ChEMBL document CHEMBL1141325, “Pinpointing pseurotins from a marine-derived Aspergillus as tools for chemical genetics using a synthetic lethality yeast screen” (2007).

Test [1] concerns Saccharomyces cerevisiae. The test is described as follows: Cytotoxicity against wild-type Saccharomyces cerevisiae hof1delta mutant by yeast halo assay relative to control. The format is functional.
Test [2] relates to Saccharomyces cerevisiae. The test is described as follows: Cytotoxicity against wild-type Saccharomyces cerevisiae by yeast halo assay relative to control. The format is functional.

Calls of active or inactive are those of the source. The calls are words filed in the database; no cut-off is given here.

Take `CC/C=C\[C@H](O)[C@H](O)C1=C(C)C(=O)[C@]2(O1)C(=O)N[C@@](OC)(C(=O)c1ccccc1)[C@@H]2O`: the result in the test on Saccharomyces cerevisiae [1] and in the test with Saccharomyces cerevisiae [2] was inactive.

Take `CC/C=C\[C@H](OC)[C@H](O)C1=C(C)C(=O)[C@]2(O1)C(=O)N[C@@](OC)(C(=O)c1ccccc1)[C@@H]2O` [11-O-METHYLPSEUROTIN A]: the “inhibition zone (IZ)” value with Saccharomyces cerevisiae [1] is listed as 9 mm; with Saccharomyces cerevisiae [2], 4 mm.
